In US5795882A, “Method of treating prostatic diseases using delayed and/or sustained release vitamin D formulations” (Bone Care International, Inc., priority 1996, dated 1998):

Assays:
[1] = system: leukemia cells; settings: by inducing differentiation to nonmalignant macrophages; cited from earlier work
[2] = system: prostate cancer cell lines; settings: cited from earlier work
[3] = system: malignant cells; settings: cited from earlier work
[4] = in vivo; cited from earlier work
[5] = Comparison of oral bioavailability in rachitic rats (Example 5); type: in vivo, rat; settings: rat, in vivo, 0.0015 mg/kg, 12 h after single oral dose 0.255 μg (approximately 1.5 μg/kg) in fractionated coconut oil, n=6, ± SD, ** p < 0.01 relative to 1α,25(OH)2 D3, read-out: Serum 1α,25-(OH)2 D3
Experimental: Three-week-old rats were maintained on a vitamin D-deficient diet containing normal levels of calcium and phosphorus for 3-6 weeks until marked hypocalcemia was observed. […] A control group received only the vehicle. For all treatment groups, blood was obtained at 12 hours postdosing, and analyzed for serum levels of the vitamin form.

[6] = system: LNCaP; experiment: Inhibition of prostate cell proliferation, LNCaP; type: cell-based, human; settings: 10^-11 to 10^-7 M, 6-7 days
Experimental: (§1) The cell lines, LNCaP and PC-3, which are derived from human prostate adenocarcinoma, are seeded in six-well tissue culture plates at a density of about 50,000 cells/plate. After the cells have attached and stabilized, about 2-3 days, the medium is replenished with medium containing vehicle or the active vitamin D analogue, 1α,24-(OH)2 D2, at concentrations from 10^-11 to 10^-7 M. Medium containing test analogue or vehicle is replaced every three days. After 6-7 days, the medium is removed, and the cells are rinsed, precipitated with cold 5% trichloroacetic acid, and washed with cold ethanol. The cells are solubilized with 0.2N sodium hydroxide, and the amount of DNA determined by standard procedures.
(§2) The procedure of Example 19 is repeated using the active vitamin D analogue 1α,24-(OH)2 D4, and the cell number is determined.
(§3) The procedure of Example 19 is repeated using the active vitamin D analogue 1α,25-(OH)2 D4, and the cell number is determined.

[7] = target: T1, prostate VDR (Homo sapiens, UniProt P11473); experiment: Prostate cell VDR binding; settings: 0.01-100 nM versus 1 nM 3H-1α,25-(OH)2 D3, 16-20 hrs, 4° C.
T1 sequence (P11473 1-427): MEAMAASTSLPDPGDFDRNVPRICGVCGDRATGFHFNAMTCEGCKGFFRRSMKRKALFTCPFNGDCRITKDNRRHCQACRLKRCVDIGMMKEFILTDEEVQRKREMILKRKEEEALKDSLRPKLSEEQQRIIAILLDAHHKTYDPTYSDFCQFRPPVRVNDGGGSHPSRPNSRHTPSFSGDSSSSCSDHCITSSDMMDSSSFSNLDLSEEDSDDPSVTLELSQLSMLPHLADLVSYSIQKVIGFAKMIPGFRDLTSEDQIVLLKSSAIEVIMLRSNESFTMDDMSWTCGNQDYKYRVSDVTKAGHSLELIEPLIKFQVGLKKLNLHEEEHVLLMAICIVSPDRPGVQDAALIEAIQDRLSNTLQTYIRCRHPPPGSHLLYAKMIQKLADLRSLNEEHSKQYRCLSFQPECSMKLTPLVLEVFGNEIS
Experimental: Prostate-derived cell lines are cultured to near confluence, washed and harvested by scraping. Cells are washed by centrifugation, and the cell pellet resuspended in a buffered salt solution containing protease inhibitors. The cells are disrupted by sonication while cooling on ice. The supernatant obtained from centrifuging the disrupted cells at 207,000×g for 35 min at 4° C. is assayed for binding. 200 μL of soluble extract, (1-2 mg protein/ml supernatant) is incubated with a 1 nM ^3 H-1α,25-(OH)2 D3 and increasing concentrations of 1α,24-(OH)2 -D2 (0.01-100 nM) for 16-20 hrs at 4° C. Bound and free hormones are separated with hydroxylapatite using standard procedures. Specific binding is calculated by subtracting nonspecific binding obtained in the presence of a 250-fold excess of nonradioactive 1α,25-(OH)2 D3 from the total binding measured.
The procedure of Example 16 is repeated using the active vitamin D analogue 1α,24-dihydroxyvitamin D4, and the specific binding is determined.
The procedure of Example 16 is repeated using the active vitamin D analogue 1α,25-dihydroxyvitamin D4, and the specific binding is determined.

[8] = system: PC-3; experiment: Inhibition of prostate cell proliferation, PC-3; type: cell-based, human; settings: PC-3, 10^-11 to 10^-7 M, 6-7 days
Experimental: as §1, §2, §3

[9] = system: LNCaP; experiment: Stimulation of prostate cell differentiation (PSA), LNCaP; type: cell-based, human; settings: 10^-11 to 10^-7 M, 6-7 days
Experimental: Using the techniques of Skowronski et al., 132 Endocrinology (1993) 1952-1960 and 136 Endocrinology (1995) 20-26, both of which are incorporated herein by reference, cells of the cell line, LNCaP, which is derived from a human metastatic prostate adenocarcinoma and known to express PSA, are seeded in six-well tissue culture plates at a density of about 50,000 cells/plate. After the cells have attached and stabilized, about 2-3 days, the medium is replenished with medium containing vehicle or the active vitamin D analogue, 1α,24-(OH)2 D2, at concentrations from 10^-11 to 10^-7 M. After 6-7 days, the medium is removed and stored at -20° C. for prostate specific antigen (PSA) analysis.
The cells are rinsed, precipitated, and the amount of DNA determined by standard procedures. The cells are resuspended, and the cell number determined. PSA is measured by standard known methods.
The procedure of Example 22 is repeated except the active vitamin D analogue is 1α,24-(OH)2 D4.
The procedure of Example 22 is repeated except the active vitamin D analogue is 1α,25-(OH)2 D4.

[10] = target: T2, Vitamin D Receptor (Homo sapiens, UniProt P11473); experiment: VDR competitive binding assay (Examples 6-8); settings: in words; Examples 7 and 8 versus the vitamin form
T2 sequence (P11473 1-427): T1 sequence (P11473 1-427)

[11] = system: luteinizing hormone (LH); settings: cited from earlier work
[12] = In vitro thermal conversion of 1α-hydroxyprevitamin D to 1α-hydroxyvitamin D; type: physicochemical; settings: in ethanol, 37° C.
Experimental: A series of experiments were conducted which address the in vitro conversion of previtamin to vitamin for three 1α-hydroxyprevitamin D's: 1α-hydroxyprevitamin D2, 1α,24-dihydroxyprevitamin D2 and 1α-hydroxyprevitamin D3. Each 1α-hydroxyprevitamin D was dissolved in ethanol, incubated at 37° C. in a water bath, and samples taken at two-hour intervals. An analytical HPLC separation was performed on each sample to quantify the thermal conversion of the previtamin to the vitamin form. The data collected were normalized to account for the presence of any vitamin form in the initial formulation (≤10%). The results are presented in FIG. 1 which is a plot of % previtamin versus time in hours. Linear regression lines were generated for each previtamin.

[13] = Oral bioavailability of 1α,24-(OH)2 preD2 in normal rats (Example 2); type: in vivo, rat
Experimental: In this experiment, normal rats maintained on a normal diet were assigned randomly to treatment and control groups. The rats were orally administered single doses of 1α,24-(OH)2 preD2 in a fractionated coconut oil (FCO) (1.5 μg, which was approximately 7.5 μg/kg). The control group received only the vehicle. For both groups, blood was obtained at 6 hours postdosing and analyzed for serum levels of the vitamin form, 1α,24-dihydroxyvitamin D2.

[14] = system: advanced androgen-independent prostate cancer; experiment: Clinical study in advanced androgen-independent prostate cancer; type: in vivo, human; settings: for progression of metastatic disease (CAT scans, x-rays, bone scans): two years
Description: Patients with advanced androgen-independent prostate cancer participate in an open-labeled study of 1α,24-(OH)2 preD2. […] On admission to the study , patients begin a course of therapy with oral 1α,24-(OH)2 preD2 lasting 26 weeks, while discontinuing any previous use of calcium supplements, vitamin D supplements, and vitamin D hormone replacement therapies. During treatment, the patients are monitored at regular intervals for: (1) hypercalcemia, hyperphosphatemia, hypercalciuria, hyperphosphaturia and other toxicity; (2) evidence of changes in the progression of metastatic disease; and (3) compliance with the prescribed test drug dosage.
The study is conducted in two phases. During the first phase, the maximal tolerated dosage (MTD) of daily oral 1α,24-(OH)2 preD2 is determined by administering progressively higher dosages to successive groups of patients. All doses are administered in the morning before breakfast. The first group of patients is treated with 25 μg of 1α,24-(OH)2 preD2. Subsequent groups of patients are treated with 50, 75 and 100 μg/day. Dosing is continued uninterrupted for the duration of the study unless serum calcium exceeds 11.6 mg/dL or other toxicity of grade 3 or 4 is observed, in which case dosing is held in abeyance until resolution of the observed toxic effect(s) and then resumed at a level which has been decreased by 10.0 μg.
During the second phase, patients are treated with 1α,24-(OH)2 preD2 for 24 months at 0.5 and 1.0 times the MTD.
The study of Example 25 is repeated for the active vitamin D compound, 1α,25-(OH)2 D2 in DSR form.

Q: Which results are given for C=C1/C(=C\C=C2/CCC[C@]3(C)[C@@H]([C@H](C)CCCC(C)(C)O)CC[C@@H]23)C[C@@H](O)C[C@@H]1O [1α,25-(OH)2 D3, 1α,25-dihydroxyvitamin D3]?
A: antileukemic activity [1]: potent antileukemic activity; antiproliferative and differentiating actions [2]: Antiproliferative and differentiating actions; growth and differentiation of malignant cells [3]: regulate growth and promote the differentiation of many malignant cells; risk of hypercalcemia limiting clinical use as anti-cancer agent [4]: precluded, or severely limited, by the risk of hypercalcemia; concentration at 12 h [5]: 0.327 ± 0.192 ng/mL

Q: Which antileukemic activity [1] does the source give for C=C1/C(=C\C=C2/CCC[C@]3(C)[C@@H]([C@H](C)CCCC(C)C)CC[C@@H]23)C[C@@H](O)C[C@@H]1O [1α-(OH)D3, 1α-hydroxyvitamin D3] here?
A: Its antileukemic activity is “potent antileukemic activity”.

Q: Which results are given for C=C1/C(=C\C=C2/CCC[C@]3(C)[C@@H]([C@H](C)CC[C@H](C)C(C)(C)O)CC[C@@H]23)C[C@@H](O)C[C@@H]1O [1α,25-(OH)2 D4, 1α,25-dihydroxyvitamin D4]?
A: number of cells versus control cultures [6]: significantly fewer cells than the control cultures; affinity for prostate VDR [7]: strong affinity for prostate VDR; number of cells versus control cultures [8]: significantly fewer cells than the control cultures; PSA (mass of PSA/cell) versus control cultures [9]: significantly more PSA than control cultures

Q: Which VDR binding affinity [10] does the source give for CC1=C(/C=C\C2=CCC[C@]3(C)[C@@H]([C@H](C)CCC(C)(O)C(C)C)CC[C@@H]23)C[C@@H](O)C[C@@H]1O (stereo partly drawn) [1α,24-(OH)2 preD4, 1α,24-dihydroxyprevitamin D4] here?
A: Its VDR binding affinity is “substantially less affinity for the receptor than does its vitamin form”.

Q: Which results are given for CC/C(=C(/CC)c1ccc(O)cc1)c1ccc(O)cc1 [diethylstilbestrol]?
A: cardiovascular profile ([11]; in vivo): poor cardiovascular profile; inhibition of the release of luteinizing hormone from the pituitary gland ([11]; in vivo): potent inhibitors of the release from the pituitary gland of luteinizing hormone; dose achieving maximum suppression of plasma testosterone ([11]; men): 3 mg/day

Q: For C=C1/C(=C\C=C2/CCC[C@]3(C)[C@@H]([C@H](C)CCC(C)(O)C(C)C)CC[C@@H]23)C[C@@H](O)C[C@@H]1O (stereo partly drawn) [1α,24-(OH)2 D4, 1α,24-dihydroxyvitamin D4], which “number of cells versus control cultures” value [6] is on record?
A: Its value is “significantly fewer cells than the control cultures”.

Q: And the “affinity for prostate VDR” value [7]?
A: The value was “strong affinity for prostate VDR”.

Q: And the “number of cells versus control cultures” value [8]?
A: The value was “significantly fewer cells than the control cultures”.

Q: And the “PSA (mass of PSA/cell) versus control cultures” value [9]?
A: The value was “significantly more PSA than control cultures”.

Q: With CC1=C(/C=C\C2=CCC[C@]3(C)[C@@H]([C@H](C)/C=C/C(C)(O)C(C)C)CC[C@@H]23)C[C@@H](O)C[C@@H]1O (stereo partly drawn) [1α,24-(OH)2 preD2, 1α,24-dihydroxyprevitamin D2] as the compound, how does the half-life [12] read?
A: The half-life was 12.2 h.

Q: What about the “oral bioavailability (increased circulating 1α,24-(OH)2 D2)” value [13] of the same compound?
A: The value was “bioavailable”.

Q: What about the VDR binding affinity [10] of the same compound?
A: The VDR binding affinity was “substantially less affinity for the receptor than does its vitamin form”.

Q: And the “bone pain associated with metastatic disease” value ([14]; patients treated with the MTD for at least six months)?
A: The value was “significantly diminished”.

Q: And the “circulating levels of 1α,25-(OH)2 D3” value ([14]; patients, daily oral)?
A: Its value is “suppressed, often to undetectable levels”.

Q: And the “levels of circulating 1α,24-(OH)2 D2 versus dosage” value ([14]; patients, daily oral)?
A: The value was “increase proportionately with the dosage administered”.

Q: And the “serum and urine calcium” value ([14]; patients, daily oral)?
A: Its value is “elevated in a dose responsive manner”.

Q: What about the “maximal tolerated dosage (MTD)” value ([14]; patients, daily oral, first phase) of the same compound?
A: The value was “above 20.0 μg/day”.

Q: And the “progression of metastatic disease (CAT scans, x-rays, bone scans)” value ([14]; higher dosage (1.0 times the MTD))?
A: Its value is “partial or complete remission”.

Q: And the “progression of metastatic disease (CAT scans, x-rays, bone scans)” value ([14]; lower dosage (0.5 times the MTD))?
A: The value was “stable disease or partial remission”.

Q: With CC1=C(/C=C\C2=CCC[C@]3(C)[C@@H]([C@H](C)/C=C/[C@H](C)C(C)C)CC[C@@H]23)C[C@@H](O)C[C@@H]1O [1α-(OH)preD2, 1α-hydroxyprevitamin D2] as the compound, how does the half-life [12] read?
A: Its half-life is 12.9 h.

Q: What does the source list for C=C1/C(=C\C=C2/CCC[C@]3(C)[C@@H]([C@H](C)/C=C/C(C)(O)C(C)C)CC[C@@H]23)C[C@@H](O)C[C@@H]1O (stereo partly drawn) [1α,24-(OH)2 D2, 1α,24-dihydroxyvitamin D2]?
A: number of cells versus control cultures [6]: significantly fewer cells than the control cultures; affinity for prostate VDR [7]: strong affinity for prostate VDR; number of cells versus control cultures [8]: significantly fewer cells than the control cultures; PSA (mass of PSA/cell) versus control cultures [9]: significantly more PSA than control cultures
